Values quoted from earlier work as cited in US9927424B2, “Assays for identifying compounds that modulate bitter taste” (Chromocell Corporation, priority 2013, dated 2018).

Legend:
Details in all cases: PCT/US12/61400; cited from earlier work
TAS2R9 = molecular target: T1, TAS2R9 (Homo sapiens, UniProt Q9NYW1)
T1 construct: expressed in transfected cells
T1 sequence (Q9NYW1 1-312): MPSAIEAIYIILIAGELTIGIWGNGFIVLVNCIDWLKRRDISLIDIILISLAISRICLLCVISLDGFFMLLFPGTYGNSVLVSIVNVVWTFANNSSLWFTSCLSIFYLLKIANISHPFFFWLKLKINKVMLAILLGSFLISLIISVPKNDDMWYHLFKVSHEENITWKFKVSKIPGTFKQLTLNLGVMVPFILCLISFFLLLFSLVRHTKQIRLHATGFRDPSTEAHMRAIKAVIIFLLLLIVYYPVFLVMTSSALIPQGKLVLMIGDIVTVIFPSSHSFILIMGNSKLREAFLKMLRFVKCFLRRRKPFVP

TAS2R14 = molecular target: T2, TAS2R14 (Homo sapiens, UniProt Q9NYV8)
T2 construct: expressed in transfected cells
T2 sequence (Q9NYV8 1-317): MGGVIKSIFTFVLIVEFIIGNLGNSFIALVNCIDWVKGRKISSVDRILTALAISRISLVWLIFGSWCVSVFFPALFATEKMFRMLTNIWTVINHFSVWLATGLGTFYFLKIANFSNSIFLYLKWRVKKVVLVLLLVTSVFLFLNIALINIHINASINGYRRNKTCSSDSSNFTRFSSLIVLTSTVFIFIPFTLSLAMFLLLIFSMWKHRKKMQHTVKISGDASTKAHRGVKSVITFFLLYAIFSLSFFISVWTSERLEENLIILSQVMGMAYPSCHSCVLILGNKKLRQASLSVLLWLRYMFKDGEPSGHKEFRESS

TAS2R44 = molecular target: T3, TAS2R44 (Homo sapiens, UniProt P59538)
T3 construct: expressed in transfected cells
T3 sequence (P59538 1-309): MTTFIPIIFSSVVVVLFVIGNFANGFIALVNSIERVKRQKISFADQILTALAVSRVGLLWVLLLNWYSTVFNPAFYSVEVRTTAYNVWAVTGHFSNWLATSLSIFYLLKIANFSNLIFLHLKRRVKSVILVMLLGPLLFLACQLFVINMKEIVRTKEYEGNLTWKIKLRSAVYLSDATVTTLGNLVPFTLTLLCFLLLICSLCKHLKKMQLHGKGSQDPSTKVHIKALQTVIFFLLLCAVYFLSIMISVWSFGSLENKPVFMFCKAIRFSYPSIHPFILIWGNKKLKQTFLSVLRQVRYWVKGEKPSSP

TAS2R60 = molecular target: T4, TAS2R60 (Homo sapiens, UniProt P59551)
T4 construct: expressed in transfected cells
T4 sequence (P59551 1-318): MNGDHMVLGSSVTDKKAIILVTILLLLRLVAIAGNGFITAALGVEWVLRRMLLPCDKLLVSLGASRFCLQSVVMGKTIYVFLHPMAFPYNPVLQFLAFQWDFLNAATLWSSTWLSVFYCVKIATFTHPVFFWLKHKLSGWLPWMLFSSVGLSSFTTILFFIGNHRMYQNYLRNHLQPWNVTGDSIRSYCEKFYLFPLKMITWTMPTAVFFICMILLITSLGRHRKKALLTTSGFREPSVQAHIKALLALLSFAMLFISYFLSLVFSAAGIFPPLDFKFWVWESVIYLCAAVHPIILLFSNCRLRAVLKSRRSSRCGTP

[Cl-].[K+] [KCl]
specifically respond: TAS2R9 response to stimulation, previously shown (TAS2R9) | TAS2R14 response to stimulation, previously shown (TAS2R14) | TAS2R44 response to stimulation, previously shown (TAS2R44) | TAS2R60 response to stimulation, previously shown (TAS2R60)
